# B1: Oncostatin-M: positive control that induces Stat3 phosphorylation in osteoblasts (protein, UniProt P13725 26-221, looked up)
# Oncostatin-M: AAIGSCSKEYRVLLGQLQKQTDLMQDTSRLLDPYIRIQGLDVPKLREHCRERPGAFPSEETLRGLGRRGFLQTLNATLGCVLHRLADLEQRLPKAQDLERSGLNIEDLEKLQMARPNILGLRNNIYCMAQLLDNSDTAEPTKAGRGASQPPTPTPASDAFQRKLEGCRFLHGYHRFMHSVGRVFSKWGESPNRSRR
# Legend:
# wild-type (wt) mice = test: 17 β-estradiol treatment of wild-type mice; format: in vivo, mouse
# ob/ob mice [1] = test: 17 β-estradiol or testosterone treatment of hypogonadic ob/ob mice; format: in vivo, mouse
# Excerpt: Nevertheless, to address this point more thoroughly the hypogonadism of the ob/ob mice was exploited. Hypogonadism normally leads to an increase in osteoclasts number and in bone resorptive activity. […] On the other hand, if the osteoclasts of the ob/ob mice were not functioning properly, correcting their hypogonadism should not affect the severity of their high bone mass phenotype. To determine which of these two possibilities was correct, 17 β-estradiol or placebo pellets (Innovative Research of America) were implanted subcutaneously in 2-month-old female ob/ob mice to maintain a serum concentration of 250 pg/mL. These animals were analyzed after a 3-month treatment period.
# Finally, the function of the osteoclasts of ob/ob and db/db mice was studied in vitro in an assay using hematopoietic progenitor cells from wild type, ob/ob, or db/db mice and growth factors known to induce the differentiation of these cells into functional osteoclasts. Mouse osteoclasts were generated in vitro according to protocols previously reported (Simonet et al., 1997, Cell 89, 309-319; Quinn et al., 1998, Endocrinology 139, 4424-4427). […] Medium was changed every other day. After 6 days of culture, cells were fixed in 3.7% formalin. Osteoclasts formed on plastic plates were stained for tartrate resistant acid phosphatase. Cells on dentin chips were removed by treatment with sodium hypochloride solution. Dentin chips were then stained with toluidine blue to visualize resorption pits.
# bone marrow adipocytes = conditions: lumbar spine; cited from earlier work
# C57BL/6J mice = test: GTG lesioning of the hypothalamus in wt mice; format: in vivo, mouse
# Protocol: Wildtype (C57BL/6J) and mutant (C57BL/6J A^y/a, C57BL/6J ob/ob) mice were obtained from the Jackson laboratory and adrenal medullectomized mice from Harlan Tecklad laboratory. Dbh−/− mice were rescued as previously described (Thomas et al., 1998, Neurochem 70:2468-2476). Isoproterenol (Sigma) was injected intraperitoneally (ip) once daily for 6 weeks at 30 mg/kg (wt) or 3 mg/kg (ob/ob). Propranolol (Sigma) was added to the drinking water at a concentration of 0.5 g/l. For ICV infusion, a 28-gauge cannula (Brain infusion kit II, Alza) was implanted into the third ventricle as previously described infusing human leptin (Sigma) at 8 ng/hr or MT-II at 125 ng/hr (Phoenix Pharmaceuticals) for 28 days (see, e.g., Ducy et al., 2000, Cell 100: 197-207). The cannula was connected to an osmotic pump (Alza) placed in the dorsal subcutaneous space of the animal. For parabiosis longitudinal incisions were made in the skin and in the peritoneal cavity along one side on each mouse. Edges of the incisions were connected by suture to induce coelioanastomosis. Cross-circulation was quantified by injecting 1 ml/kg 0.25% Evans blue into the tail vein of one mouse of the parabiosed pair. After 30 min. blood was collected from both mice by retroorbital bleeding and the blood exchange rate was calculated according to standard techniques (see, e.g., Harris & Martin, 1984, Am J Physiol 247:R380-386). […] Two weeks after parabiosis a pump delivering leptin ICV in one animal of each pair was implanted. For GTG lesioning, 4-week-old C57BL/6J mice were given a single ip injection of either PBS or GTG (0.5 mg/g). For MSG lesioning, 2 day-old C57BL/6J pups were injected daily subcutaneously with either PBS or MSG (2 mg/g) for 10 days.
# Next, 4-week-old wt mice were treated with gold thioglucose (GTG), a compound that destroys neurons of the VMH and of the more dorso-lateral part of the ARC although it affects other neurons (see, e.g., Debons et al., 1962, Am J Physiol 4:743-750). […] As with ob/ob mice, this HBM was due to an increase in bone formation defined by an increase in the bone formation rate (FIG. 9E). […] These findings established that neurons sensitive to GTG are involved in the control of bone mass.
# C57BL/6J pups = test: MSG lesioning of the hypothalamus in mice; format: in vivo, mouse
# Protocol: (§1) Wildtype (C57BL/6J) and mutant (C57BL/6J A^y/a, C57BL/6J ob/ob) mice were obtained from the Jackson laboratory and adrenal medullectomized mice from Harlan Tecklad laboratory. Dbh−/− mice were rescued as previously described (Thomas et al., 1998, Neurochem 70:2468-2476). Isoproterenol (Sigma) was injected intraperitoneally (ip) once daily for 6 weeks at 30 mg/kg (wt) or 3 mg/kg (ob/ob). Propranolol (Sigma) was added to the drinking water at a concentration of 0.5 g/l. For ICV infusion, a 28-gauge cannula (Brain infusion kit II, Alza) was implanted into the third ventricle as previously described infusing human leptin (Sigma) at 8 ng/hr or MT-II at 125 ng/hr (Phoenix Pharmaceuticals) for 28 days (see, e.g., Ducy et al., 2000, Cell 100: 197-207). The cannula was connected to an osmotic pump (Alza) placed in the dorsal subcutaneous space of the animal. For parabiosis longitudinal incisions were made in the skin and in the peritoneal cavity along one side on each mouse. Edges of the incisions were connected by suture to induce coelioanastomosis. Cross-circulation was quantified by injecting 1 ml/kg 0.25% Evans blue into the tail vein of one mouse of the parabiosed pair. After 30 min. blood was collected from both mice by retroorbital bleeding and the blood exchange rate was calculated according to standard techniques (see, e.g., Harris & Martin, 1984, Am J Physiol 247:R380-386). […]
# [2] = test system: murine primary osteoblasts; test: cAMP production in murine primary osteoblasts; format: cell-based, mouse; conditions: confluent cultures, 100 μM IBMX, 5 min treatment; PTH as positive control
# Protocol: (§2) Primary osteoblast cultures were established as previously described (see, e.g., Ducy et al., 2000, Cell 100: 197-207) and maintained in αMEM/0.1 mg/ml ascorbic acid supplemented with 10% FBS. SaOS-2 were grown in MEM/10% FBS. For cAMP assay confluent cultures were incubated with serum free medium containing 100 μM IBMX (3-isobutyl-1-methylxanthine, Sigma) for 8 minutes before PBS, PTH(1-34) (Bachem), isoproterenol, norepinephrine, phenylephrine (Sigma) or propranolol were added for 5 min. Intracellular cAMP concentration was measured by immunoassay (R&D Systems). For gene expression analyses, primary osteoblasts were treated for 72 hours with appropriate drugs in 0.1% FBS. Hormone serum levels were quantified using immunoassays kits from Peninsula Laboratories (Insulin) or Alpco Diagnostics (leptin). Deoxypyridinoline cross-links and Creatinine were measured in morning urines using the Quidel kits. a1(I) leptin bioactivity was verified by cotransfection of 293 cells expressing ObRb with a STAT3-responsive-luc reporter construct, pSVβgal plasmid and a1(I) leptin expression vector or mock. Twenty-four hours later luciferase and β-galactosidase activities were measured. Data represents ratios of luciferase/β-galactosidase activities, and values are mean of 6 independent transfection experiments.
# For a sympathetic regulation of bone formation to exist several requirements have to be fulfilled. The first one is that functional adrenergic receptors are present on osteoblasts. […] Immunohistochemical analysis of long bones from transgenic mice expressing LacZ under the control of the osteoblast-specific fragment of the a1(I) collagen promoter verified the presence of β2-adrenergic receptors on osteoblasts (FIG. 13B). No other adrenergic receptor subtype could be detected. […] Electron micrographs confirmed the presence of unmyelinated peripheral nerve axons coursing through the marrow adjacent to bone trabeculae and to osteoblasts (FIG. 13E). β-adrenergic receptors are G-coupled receptors that signal through the cAMP pathway (see, e.g., Benovic et al., 1988, Annu Rev Cell Biol 4:405-428). Thus, to assess the biologic relevance of the presence of β2-adrenergic receptors on osteoblasts, these cells were treated with isoproterenol, a β-adrenergic agonist, alone or in the presence of propranolol, a β-adrenergic receptor antagonist; with norepinephrine, the natural ligand of β-adrenergic receptors; with phenylephrine, an α-adrenergic agonist or with vehicle and measured cAMP production. As a positive control, parathyroid hormone (PTH) that binds to another G-coupled receptor present in osteoblasts was used (Gardella & Juppner, 2001, Trends Endocrinol Metab 12:210-217.). […] These effects were abolished by propranolol treatment. […]
# [3] = test system: human SaOS-2 osteoblastic cells; test: cAMP production in human SaOS-2 osteoblastic cells; format: cell-based; conditions: SaOS-2, 100 μM IBMX, 5 min treatment
# Protocol: as §2
# For a sympathetic regulation of bone formation to exist several requirements have to be fulfilled. The first one is that functional adrenergic receptors are present on osteoblasts. […] No other adrenergic receptor subtype could be detected. […] Thus, to assess the biologic relevance of the presence of β2-adrenergic receptors on osteoblasts, these cells were treated with isoproterenol, a β-adrenergic agonist, alone or in the presence of propranolol, a β-adrenergic receptor antagonist; with norepinephrine, the natural ligand of β-adrenergic receptors; with phenylephrine, an α-adrenergic agonist or with vehicle and measured cAMP production. […]
# ovariectomized rat = conditions: cited from earlier work
# ob/ob mice [4] = test: ICV infusion of MTII in ob/ob mice; format: in vivo, mouse; conditions: ICV 125 ng/hr, 28 days
# Protocol: as §1
# [5] = test system: primary osteoblasts isolated from wild-type mice; test: Leptin signaling in primary osteoblast cultures (Stat3 phosphorylation, immediate early genes, matrix synthesis and mineralization); format: cell-based, mouse
# Protocol: Expression of leptin in osteoblasts was studied in subconfluent primary osteoblast cultures from wild-type mice which were maintained for 4 days in 10% FBS mineralization medium and then subsequently switched to 0.5% for 2 days and replaced daily. Medium was replaced 2 hours before a 20 min treatment with 80 ng/mL leptin (Sigma) or 40 ng/mL Oncostatin M (R&D Diagnostics) or vehicle. RNA extractions were performed using Triazol (Gibco). Northern blots were performed with 15 μg of total RNA according to methods well known in the art.
# To determine whether or not leptin could transduce its signal in osteoblasts, serum-starved primary osteoblasts isolated from wild-type mice were treated with leptin. Primary osteoblast cultures from calvaria of newborn wild-type or db/db mice were established as previously described (Ducy et al., 1999, Genes Dev 13, 1025-1036) and maintained in mineralization medium (αMEMI 0.1 mg/mL ascorbic acid; 5 mM […]) supplemented with 10% […]. Cultures of mutant cells were maintained in this medium for 15 days before analysis. Cultures derived from wild-type mice were maintained for 10 days in this medium then the percentage of serum was reduced to 0.5% and the medium supplemented with 1.2 μg/mL leptin (Sigma) or vehicle for 5 days.
# The phosphorylation of Stat3, a downstream effector of leptin signaling in its target cells (Tartaglia et al., 1995, Cell 83, 1263-1271; Baumann et al., 1996, Proc Natl Acad Sci USA 93, 8374-8378; Ghilardi et al., 1996, Proc Natl Acad Sci USA 93, 6231-6235; Vaisse et al., 1996, Nat Genet 14, 95-97), was monitored, in addition to the expression of two immediate early genes whose transcription is increased following leptin treatment of target cells (Elmquist et al., 1997, Endocrinology 138, 839-842). As a positive control oncostatin-M that induces Stat3 phosphorylation and activates the expression of the same two immediate early genes in osteoblasts (Levy et al., 1996, Endocrinology 137, 1159-1165) was utilized. Western blot analysis was performed to determine Stat3 phosphorylation as follows. Cells were lysed, protein extracts were separated on a 7.5% SDS-PAGE and blotted on nitrocellulose (Biorad) for immunoblotting assay by methods well known in the art. Analysis of Stat3 phosphorylation was performed using the PhosphoPlus Stat3 (Tyr7O5) Antibody kit (New England Biolabs) according to the manufacturer's instructions.
# Finally, the effect of a long-term leptin treatment of primary osteoblast cultures from wild-type mice on extracellular matrix synthesis and bone matrix mineralization was determined. The presence of a collagen-rich extracellular matrix and of mineralization nodules was assessed by whole-mount staining of the cultures by the van Gieson and von Kossa reagent, respectively. No difference was observed when assessing collagen synthesis or mineralization nodule formation between control and leptin-treated cultures (FIG. 5E).
# [6] = estradiol-treated ob/ob mice, end of treatment period
# [7] = female ob/ob mice, 3-month treatment
molecule,measurement,setting,value
C[C@]12CC[C@@H]3c4ccc(O)cc4CC[C@H]3[C@@H]1CC[C@@H]2O [17 β-estradiol],bone trabeculae (histological analysis of vertebrae),wild-type (wt) mice,significant increase
same,"hypogonadism, as judged by the aspect of uteri and levels of estradiol in blood","ob/ob mice [1]; 2-month-old female ob/ob mice, subcutaneous pellets, serum 250 pg/mL, 3-month treatment",corrected their hypogonadism
same,increase in bone volume compared to estradiol-treated wild-type mice,ob/ob mice [1]; [6],50%
same,increase in bone volume compared to untreated wild-type mice,ob/ob mice [1]; [6],3 fold
same,high bone mass phenotype compared to placebo treated ob/ob mice,ob/ob mice [1]; [7],further increase
same,osteoclast number,ob/ob mice [1]; [7],normalization
COC(=O)COc1ccc(CC(C)NCC(O)c2cccc(Cl)c2)cc1 (stereo not drawn) [BRL 35135],sizes of bone marrow adipocytes,bone marrow adipocytes,reduce
"OC[C@@H](O)[C@@H](O)[C@H](O)[C@@H](O)C=S.[Au] [GTG, gold thioglucose]",VMH neurons expressing SF1 (immunohistochemistry),"C57BL/6J mice; 4-week-old wt mice, single ip injection 0.5 mg/g",marked perturbation
same,bone formation rate,C57BL/6J mice; 12 week-old GTG-treated mice,increase
same,bone mass (bone histologic analysis),C57BL/6J mice; 12 week-old GTG-treated mice,HBM whose severity was nearly identical to that of ob/ob mice
same,urinary elimination of deoxypyridinoline (dpd) and osteoclast numbers,C57BL/6J mice; GTG-treated mice,normal
"N[C@@H](CCC(=O)O)C(=O)[O-].[Na+] [MSG, monosodium glutamate]",ARC structures (neurons synthesizing NPY),"C57BL/6J pups; newborn pups, 2 mg/g subcutaneously daily for 10 days",markedly affected
same,"bone mass (bone volume, histology)",C57BL/6J pups; twelve week-old MSG-treated mice,normal
NC[C@H](O)c1ccc(O)c(O)c1 [norepinephrine],cAMP production,[2],increased
same,cAMP production,[3],induced
CNC[C@H](O)c1cccc(O)c1 [phenylephrine],cAMP production,[2],not
CC(C)(C)NCC(O)c1ccc(O)c(CO)c1 (stereo not drawn) [salbutamol],effects in bone,ovariectomized rat,Anabolic effects
MTII,body weight,ob/ob mice [4],significantly decreased
same,bone mass,ob/ob mice [4],did not affect
B1,expression of Tis11 and c-fos (Northern analysis),"[5]; primary osteoblasts, 20 min treatment",quickly and transiently activated
same,Stat3 phosphorylation (Western blot),"[5]; serum-starved primary osteoblasts, 20 min, leptin 80 ng/mL, Oncostatin M 40 ng/mL",did induce

# Reference: patent US20060165683A1, “Methods and compositions for control of bone formation via modulation of sympathetic tone” (priority 2001, published 2006)
